The values below are quoted from earlier work in patent publication US11670410B1, “Systems and methods to automatically administer a psychoactive substance to an airway of a user based on a detected event or condition” (priority 2022, dated 2023).

SMILES strings stand for the structures.

The conditions of series [1]: @ 5 min., protocol dose 1.0 mg.
For series [2] the following is noted: inhaled after vaporization; protocol dose 10 mcg/Kg.
The conditions of series [3]: galantamine consumed orally.
For series [4] the following is noted: nose-to-brain device, protocol dose 1 mg.

`CC[C@H](C)[C@@H]1NC(=O)[C@H](Cc2ccc(O)cc2)NC(=O)[C@@H](N)CSSC[C@@H](C(=O)N2CCC[C@H]2C(=O)N[C@@H](CC(C)C)C(=O)NCC(N)=O)NC(=O)[C@H](CC(N)=O)NC(=O)[C@H](CCC(N)=O)NC1=O` [Oxytocin, oxytocin]: the “PK-Intranasal olfactory bulb concentration” value in series [1] is > 0 @ 5 min.
As to `COC(=O)[C@@H]1C[C@H](OC(C)=O)C(=O)[C@H]2[C@@]1(C)CC[C@H]1C(=O)O[C@H](c3ccoc3)C[C@]21C` [Salvinorin A, salvinorin A], in series [2], the “PK-Inhaled Tmax” value is listed as “Tmax = 2 min”.
A word on the Tmax: it is the time from dosing to the highest level. In the case of `COc1ccc2c3c1O[C@H]1C[C@@H](O)C=C[C@@]31CCN(C)C2` [Galantamine, galantamine], the Tmax in series [3] is ~1.5 h. For the same compound, the “PK-Intranasal Tmax” value in series [4] is 0.5 to 0.75 h.
